The source of these data is patent US20220127267A1, “THIENO[3,2-B] PYRROLE[3,2-D]PYRIDAZINONE DERIVATIVES AND THEIR USE AS PKM2 DERIVATIVES FOR THE TREATMENT OF CANCER, OBESITY AND DIABETES RELATED DISORDERS” (Agios Pharmaceuticals, Inc., priority 2019, published 2022).

The target of one experiment is PKM2 (Mus musculus, UniProt P52480). To be noted: in vivo; cited from earlier work.
The target of the next experiment is PKR WT (Homo sapiens, UniProt P30613). Kind of experiment: PKR enzyme assay (WT), LDH-coupled, absorbance 340 nm. It is filed as biochemical. To be noted: wild type PKR enzyme activation. On the procedure: (§1) PKR (WT or mutant) enzyme stock solution was diluted to prepare a 1.25× Reaction Mix (without ADP). 1 μL of test compound was first added to the wells followed by 40 μL of 1.25× Reaction Mix (without ADP) and incubated at room temperature (25° C.) for 60 min. The reaction was initiated with 10 μL ADP, bringing the final Reaction Mix to 1x, and the reaction progress was measured as changes in absorbance at 340 nm wavelength at room temperature.
(§2) Test compound preparation: Test compounds were prepared at 50× final concentration in DMSO. 1 to 3 dilutions were made for 11 points (for example 50 μL of 5000 μM compound was added to 100 μL 100% DMSO to yield a 1667 μM, 50 μL of this added to 100 μL DMSO to yield 556 μM, and so forth). The compounds were added to the assay as a 1 to 50 dilution (1 μL in 50 μL) to yield a top concentration of 100 μM, decreasing 3-fold for 11 points.
(§3) Reaction Mix: PKR (1.25-1000 ng/well, 0.025-20 μg/ml depending on the PKR mutant), ADP (0.05-2.3 mM depending on the PKR mutant), PEP (0.031-2 mM depending on the PKR mutant), NADH (180 μM), LDH (0.005 U/μL, Sigma #L3888), 1 mM DTT, 0.03% BSA in 1× Reaction Buffer
(§4) Reaction Buffer: 100 mM KCl, 50 mM Tris pH 7.5, 5 mM MgCl2.

In the next experiment the target is PKR K410E (Homo sapiens, UniProt P30613, K410E). Kind of experiment: PKR Mutant Assay (K410E), LDH-coupled, absorbance 340 nm. It is filed as biochemical. To be noted: mutant PKR K410E enzyme activation. On the procedure: as §1, §2, §3, §4
The next experiment concerns the target PK R510Q (Homo sapiens, UniProt P30613, R510Q). The experiment can be described thus: PKR Mutant Assay (R510Q), LDH-coupled, absorbance 340 nm. It is filed as biochemical. To be noted: mutant PKR R510Q enzyme activation. As for the experimental part: as §1, §2, §3, §4
The test system of a further experiment is RBCs. Kind of experiment: Cell Based ATP Assay in purified red blood cells (Cell-Titer-Glo). The following applies: wild type PKR, ATP levels in RBCs, overnight at 37° C. Details: species or system human. As for the experimental part:
Fresh blood drawn from healthy volunteers into K2EDTA tubes was collected. Whole blood was pelleted by spinning at 500 g for 10 minutes. The transfusion bag port was cut off Purecell leukocyte reduction neofilter (Fisher NC0267633) one (1) inch above filter. A 10 ml syringe barrel was attached to the remaining cut tubing attached to the neofilter. The plasma layer was removed from the pellet of the whole blood and the pellet was resuspended in 2× volume of phosphate buffered saline (PBS). 9 ml re-suspended blood cell pellet was transferred to a 10 ml syringe that was attached to the neofilter. The whole blood was allowed to gravity flow through filter until all fluid ran through upper tubing into a filter disc. The plunger was added to the syringe. The filter was inverted and air was plunged through the syringe filter system. A new 5 ml syringe was used to remove filtered RBCs from the bag by the syringe port. Purified RBCs were transferred to a 5 ml snap cap tube that had been incubated on ice. The 5 ml snap cap tube was spun at 500 g for 10 minutes at 15 C. Supernatant was aspirated and resuspended in AGAM (1×PBS, 1% glucose, 170 mg/L adenine, 5.25 g/L mannitol) at a density of 4×10^9 cells/mL.
For cell based ATP assays, the compound as described herein was prepared in 100% DMSO as a 10 mM stock. Serial dilutions (1:4) were performed in 96-well V-bottom storage plate and then added 1:100 to 96-well V-bottom plates containing AGAM. 10 μL/well of compound diluted in AGAM was added to black clear bottom assay plates. RBCs were diluted in AGAM media to a density of 1×10^7 cells/mL before added 90 μL/well to black clear bottom assay plates (final compound concentration at 0.1% DMSO concentration). Assay plates were sealed using aluminum foil seals and incubated overnight at 37° C. in a humidified chamber. ATP levels were read out using Cell-Titer-Glo (Promega).

Another experiment addresses PKM2 WT (Homo sapiens, UniProt P14618). Kind of experiment: PKM2 Assay, LDH-coupled, absorbance 340 nm. The experiment is classed as biochemical. The following applies: wild type PKM2 enzyme activation. On the procedure:
PKM2 enzyme stock solution was diluted to prepare a 1.25× Reaction Mix (without ADP). 1 μL of test compound was first added to the wells followed by 40 μL of 1.25× Reaction Mix (without ADP) and incubated at room temperature (25° C.) for 60 min. The reaction was initiated with 10 μL ADP (0.4 mM final concentration), bringing the final Reaction Mix to 1x, and the reaction progress was measured as changes in absorbance at 340 nm wavelength at room temperature.
as §2
Reaction Mix: PKM2 (5 ng/well, 0.1 μg/ml), ADP (0.4 mM), PEP (0.11 mM), NADH (180 μM), LDH (0.005 U/μL, Sigma #L3888), 1 mM DTT, 0.03% BSA in 1×
as §4

Structures are written as SMILES. A value given as a limit tells only on which side of the number the result lay.

Sequence of PKR K410E (P30613 whole entry K410E): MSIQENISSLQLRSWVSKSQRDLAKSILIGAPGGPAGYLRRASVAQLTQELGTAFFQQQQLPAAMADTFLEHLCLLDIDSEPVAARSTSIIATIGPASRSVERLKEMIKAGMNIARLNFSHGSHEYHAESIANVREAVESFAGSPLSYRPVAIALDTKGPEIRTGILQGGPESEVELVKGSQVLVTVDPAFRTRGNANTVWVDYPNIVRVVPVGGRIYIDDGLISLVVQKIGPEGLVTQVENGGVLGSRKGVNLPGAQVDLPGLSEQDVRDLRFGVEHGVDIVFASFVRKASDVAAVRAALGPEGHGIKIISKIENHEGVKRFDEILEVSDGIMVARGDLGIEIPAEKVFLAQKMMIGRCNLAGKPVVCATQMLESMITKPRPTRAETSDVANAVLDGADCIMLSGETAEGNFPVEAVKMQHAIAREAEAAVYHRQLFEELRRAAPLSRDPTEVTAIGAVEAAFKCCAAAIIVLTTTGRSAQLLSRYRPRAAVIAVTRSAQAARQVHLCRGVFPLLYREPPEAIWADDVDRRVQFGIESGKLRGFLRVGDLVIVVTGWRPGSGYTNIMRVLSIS
Sequence of PKM2 WT (P14618 whole entry): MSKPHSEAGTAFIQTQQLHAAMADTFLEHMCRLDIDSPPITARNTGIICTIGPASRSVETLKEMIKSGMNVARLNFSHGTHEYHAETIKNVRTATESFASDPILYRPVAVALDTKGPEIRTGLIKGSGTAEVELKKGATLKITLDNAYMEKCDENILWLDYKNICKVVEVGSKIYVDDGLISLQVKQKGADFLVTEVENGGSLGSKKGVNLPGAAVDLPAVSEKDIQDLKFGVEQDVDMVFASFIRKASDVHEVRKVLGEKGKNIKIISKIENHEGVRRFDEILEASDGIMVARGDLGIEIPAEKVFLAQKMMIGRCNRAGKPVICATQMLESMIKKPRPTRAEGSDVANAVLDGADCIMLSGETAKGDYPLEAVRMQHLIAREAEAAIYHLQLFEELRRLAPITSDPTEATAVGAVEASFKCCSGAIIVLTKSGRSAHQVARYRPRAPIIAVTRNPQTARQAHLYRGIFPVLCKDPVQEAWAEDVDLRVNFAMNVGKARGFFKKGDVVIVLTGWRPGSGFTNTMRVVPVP
Sequence of PK R510Q (P30613 whole entry R510Q): as the sequence (P30613 whole entry K410E) above, with E410K, R510Q counted along it
Sequence of PKR WT (P30613 whole entry): as the sequence (P30613 whole entry K410E) above, with E410K counted along it
Sequence of PKM2 (P52480 whole entry): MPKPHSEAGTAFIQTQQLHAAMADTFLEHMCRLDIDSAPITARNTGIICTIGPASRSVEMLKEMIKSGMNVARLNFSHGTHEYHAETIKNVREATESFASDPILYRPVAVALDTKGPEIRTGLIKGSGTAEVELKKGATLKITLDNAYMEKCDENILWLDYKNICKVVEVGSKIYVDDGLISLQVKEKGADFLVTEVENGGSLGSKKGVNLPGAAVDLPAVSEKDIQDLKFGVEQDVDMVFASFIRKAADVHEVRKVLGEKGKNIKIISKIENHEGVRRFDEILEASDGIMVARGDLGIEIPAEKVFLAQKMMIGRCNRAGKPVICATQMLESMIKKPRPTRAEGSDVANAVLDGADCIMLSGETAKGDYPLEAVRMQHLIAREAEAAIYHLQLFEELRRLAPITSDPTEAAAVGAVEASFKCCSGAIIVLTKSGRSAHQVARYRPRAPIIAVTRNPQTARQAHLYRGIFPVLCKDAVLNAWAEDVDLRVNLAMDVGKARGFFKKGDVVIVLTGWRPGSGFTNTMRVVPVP

Take `Cn1c2cc([S+](C)[O-])sc2c2cnn(Cc3cccc(N)c3)c(=O)c21` (stereo not shown) [TEPP-46]: on PKM2, the “LPS and IL-1β production” value is recorded as “inhibited”; the “production of IL-10” value is reported as “boosting”.

For `Cc1nc2c3cnn(Cc4ccccc4)c(=O)c3n(C)c2s1` [Cpd 26], the AC50 on PKR WT, on PKR K410E, at PK R510Q and on PKM2 WT was greater than 800 nM each time. In addition, the “Cell based ATP assay AC50” value with RBCs is given as “No Fit”.

Turning to `Cn1cc(Cc2ccc3c4cnn(Cc5cccc(C(N)=O)c5)c(=O)c4n(C)c3c2)cn1` [Cpd 62], the AC50 – broadly, the concentration at which the activity in the assay is half-maximal – is greater than 800 nM at PKR WT, greater than 800 nM on PKR K410E, greater than 800 nM on PK R510Q and 301 to 800 nM on PKM2 WT. For the same compound, the “Cell based ATP assay AC50” value in the experiment on RBCs is recorded as “No Fit”.

With `Cn1c2ccc(S(C)(=O)=O)cc2c2cnn(Cc3cccc(C(N)=O)c3)c(=O)c21` [Cpd 52], the AC50 on PKR WT is greater than 800 nM; at PKR K410E, greater than 800 nM; at PK R510Q, greater than 800 nM; on PKM2 WT, 301 to 800 nM. Also, the “Cell based ATP assay AC50” value in the experiment with RBCs is reported as “No Fit”.

For `Cn1ccc(Cn2ncc3c4cc(Cc5cscn5)ccc4n(C)c3c2=O)n1` [Cpd 31], the concentration at half-maximal activity (AC50) on PKR WT was greater than 800 nM; on PKR K410E, greater than 800 nM; at PK R510Q, greater than 800 nM; in the experiment with RBCs (Homo sapiens, Erythrocyte), greater than 1000 nM; at PKM2 WT, greater than 800 nM.

Consider `Cn1c2ccc([S+](C)[O-])cc2c2cnn(Cc3cccc(C(N)=O)c3)c(=O)c21` (stereo not shown) [Cpd 51], for which the AC50 on PKR WT, on PKR K410E, on PK R510Q and at PKM2 WT was greater than 800 nM each time. Moreover, in the experiment on RBCs, the “Cell based ATP assay AC50” value is recorded as “No Fit”.

`COc1cccc(Cn2ncn3c(c(C)c4nc(C)sc43)c2=O)c1` [Cpd 25]: the AC50 on PKR WT, on PKR K410E, at PK R510Q and on PKM2 WT was greater than 800 nM throughout. Moreover, the “Cell based ATP assay AC50” value in the experiment with RBCs is listed as “No Fit”.

With `Cn1cc(Cc2ccc3c(c2)c2cnn(Cc4cccc(C(N)=O)c4)c(=O)c2n3C)cn1` [Cpd 35], the “PKR WT AC50” value on PKR WT was “No Fit”. For the same compound, at PKR K410E, the “PKR K410E AC50” value is on record as “No Fit”. Besides, the “PK R510Q AC50” value at PK R510Q is listed as “No Fit”. In addition, the “Cell based ATP assay AC50” value in the experiment with RBCs is reported as “No Fit”. For the same compound, the AC50 at PKM2 WT is 301 to 800 nM.
